The source of these data is article PMC11858854, “In Vitro and In Vivo Assessment of Pharmacokinetic Profile of Peramivir in the Context of Inhalation Therapy” (Pharmaceuticals, 2025).

Data set [1] can be described thus: Bidirectional transport, NCI-H441 air-liquid culture model. The data set is classed as in vitro ADME, human. To be noted: human, NCI-H441, 2 μM; for Papp A→B at 2 h, 2 µM / Papp B→A at 2 h, 2 µM: Mean ± SD, n = 3. On the procedure: (§1) NCI-H441 cells were cultured in RPMI-1640 medium (Gibco, Thermo, CA, USA) supplemented with 10% FBS and PS (100 U/mL) at 37 °C in a humidified 5% CO2 incubator, and the medium was changed every other day. […] Then, 850 μL of complete medium (containing 200 nM dexamethasone) was added to the basolateral chamber. […] Subsequently, an air-interfaced culture (AIC) was initiated by supplying 650 μL of culture medium to the basolateral chamber only. The culture medium was replaced every other day.
(§2) We removed the liquid from the apical and basolateral of the Transwell, rinsed the cells three times with a buffer containing HBSS, 10 mM Hepes, and 0.1% BSA (Buffer A), and then added Buffer A (100 µL for the apical side and 600 µL for the basolateral side) for pre-incubation for 30 min at 37 °C. For the transport studies in the apical to basolateral (A-B) direction, 100 μL of pre-warmed test solution (Buffer A containing 2 µM positive control drugs or peramivir) was added to the apical side, while 600 μL of pre-warmed assay buffer, a buffer containing HBSS, 10 mM Hepes, and 1% BSA (Buffer B), was added to the basolateral compartment.

The subject of another data set is BCRP. Described as above. The data set is classed as in vitro ADME, human. To be noted: human, with ko143 5 µM; NCI-H441, topotecan 2 μM with BCRP inhibitor ko143 (5 μM); read-out: ER value, inhibitor group. On the procedure: as §1, §2
Data set [2] is described as follows: Bidirectional transport, NCI-H441/dTHP co-culture model. The data set is classed as in vitro ADME, human. To be noted: human; NCI-H441/dTHP, 2 μM, Mean ± SD, n = 3. The procedure:
(§3) THP-1 cells were cultured in RPMI-1640 medium (Gibco, Thermo, CA, USA) supplemented with 10% FBS, PS (100 U/mL), and β-Mer (0.05 mM) at 37 °C in a humidified 5% CO2 incubator, and the medium was changed every other day. THP-1 cells were seeded at 4 × 10^5 cells/mL in six-well plates and induced for 48 h by adding medium containing a final concentration of 100 ng/mL PMA.
(§4) Then, the differentiated cells were seeded at 5 × 10^4 cells/well on the surface of NCI-H441 cells 10 days after air–liquid culture and continued to co-culture for 24 h.
as §2

Data set [3] deals with NCI-H441/dTHP co-culture model. The description is as above. The data set is classed as in vitro ADME, human. Conditions: for ER: NCI-H441/dTHP, 2 μM. On the procedure:
as §3, §4, §2

A further data set concerns NCI-H441 cell model. Nature of the data set: Bidirectional transport, NCI-H441 air-liquid culture model. The data set is classed as in vitro ADME, human. The procedure:
as §1, §2

For another data set, the system named is Calu-3 cell model. The data set is described as follows: Bidirectional transport, Calu-3 air-liquid culture model. To be noted: Calu-3, about 14 days air–liquid interface.
The nature of data set [4]: Permeability assay, LLC-PK1-MOCK cells. Conditions: pig, LLC-PK1, 2 μM; for Papp A→B at 2 h, 2 µM / Papp B→A at 2 h, 2 µM: Mean ± SD, n = 3; for efflux ratio at 2 h, 2 µM: read-out: ER. The data set is classed as in vitro ADME.
Method: (§5) When the cell transport system was mature in culture, experiments were performed. […] When assessing permeability in basolateral to apical (B-A) direction, 100 μL of pre-warmed Buffer B and 600 μL of pre-warmed test solutions were added to the apical and basolateral compartments, respectively. The Transwells® were placed in an incubator at 37 °C and 5% CO2 for a duration of 2 h. At the end of the incubation period, the samples in the apical and basolateral sides were collected separately and were briefly kept at a temperature of −40 °C for LC-MS/MS analysis. […] The cells were transferred to Transwell® plates (Corning, NY, USA) at a density of 2 × 10^4 cells/well with 200 μL of cell suspension per well, while 850 μL of complete medium was added to the basolateral chamber. […] The samples were collected separately and were briefly kept at a temperature of −40 °C for LC-MS/MS analysis.
Data set [5] in a line: Bidirectional transport, Calu-3 air-liquid culture model. Conditions: human.
The target of a further data set is P-gp (MDR1) (Homo sapiens, UniProt P08183). Nature of the data set: Permeability assay, LLC-PK1-MDR1 cells overexpressing P-gp. Conditions: for Papp B→A at 2 h, 2 µM / efflux ratio at 2 h, 2 µM: human, LLC-PK1.
For data set [6] the following is noted: administered orally; cited from earlier work.
The subject of the next data set is P-gp. Nature of the data set: Bidirectional transport, Calu-3 air-liquid culture model. To be noted: human, with tariquidar 5 µM.
Another data set has as its target human MDR1 (P-gp) (Homo sapiens, UniProt P08183). Nature of the data set: Permeability assay, LLC-PK1-MDR1 cells overexpressing P-gp. To be noted: LLC-PK1-MDR1, 2 μM, Mean ± SD, n = 3.

P-gp (MDR1), sequence (P08183 whole entry): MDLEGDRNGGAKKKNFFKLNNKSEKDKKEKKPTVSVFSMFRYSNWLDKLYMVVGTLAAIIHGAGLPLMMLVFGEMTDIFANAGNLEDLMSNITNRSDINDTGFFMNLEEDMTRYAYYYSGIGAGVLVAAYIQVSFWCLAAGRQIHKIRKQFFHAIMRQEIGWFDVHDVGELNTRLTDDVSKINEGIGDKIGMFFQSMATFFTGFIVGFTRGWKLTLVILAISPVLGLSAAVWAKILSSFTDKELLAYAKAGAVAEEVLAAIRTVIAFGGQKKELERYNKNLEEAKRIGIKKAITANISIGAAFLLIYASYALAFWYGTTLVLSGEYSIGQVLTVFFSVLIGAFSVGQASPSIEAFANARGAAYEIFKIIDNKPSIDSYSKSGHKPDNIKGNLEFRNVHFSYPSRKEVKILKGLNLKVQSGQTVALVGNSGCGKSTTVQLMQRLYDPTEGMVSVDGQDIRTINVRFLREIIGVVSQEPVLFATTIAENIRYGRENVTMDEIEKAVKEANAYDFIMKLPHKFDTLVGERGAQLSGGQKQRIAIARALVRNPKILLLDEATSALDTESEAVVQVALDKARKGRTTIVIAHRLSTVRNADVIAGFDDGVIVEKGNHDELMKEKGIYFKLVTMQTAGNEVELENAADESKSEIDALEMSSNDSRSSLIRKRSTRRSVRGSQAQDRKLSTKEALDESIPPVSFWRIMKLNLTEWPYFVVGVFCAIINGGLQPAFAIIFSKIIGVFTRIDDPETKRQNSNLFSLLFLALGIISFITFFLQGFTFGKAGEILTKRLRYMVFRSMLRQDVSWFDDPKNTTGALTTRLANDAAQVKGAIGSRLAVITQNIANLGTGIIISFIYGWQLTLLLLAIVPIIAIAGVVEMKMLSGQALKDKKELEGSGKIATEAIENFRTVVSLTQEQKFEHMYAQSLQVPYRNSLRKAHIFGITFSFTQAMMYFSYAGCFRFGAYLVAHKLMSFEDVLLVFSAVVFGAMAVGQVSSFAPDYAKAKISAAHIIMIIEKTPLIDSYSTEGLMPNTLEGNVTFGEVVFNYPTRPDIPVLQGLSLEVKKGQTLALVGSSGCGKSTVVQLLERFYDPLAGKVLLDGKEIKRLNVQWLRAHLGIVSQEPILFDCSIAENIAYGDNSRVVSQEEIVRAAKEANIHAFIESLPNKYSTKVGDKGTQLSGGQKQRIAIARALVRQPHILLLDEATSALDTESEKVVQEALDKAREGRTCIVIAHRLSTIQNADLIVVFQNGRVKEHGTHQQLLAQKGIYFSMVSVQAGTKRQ
human MDR1 (P-gp), sequence (P08183 whole entry): as above
Method for P-gp (MDR1): as §5
Method for human MDR1 (P-gp): as §5

As a reminder, the Papp A→B is the apparent permeability from the apical to the basolateral side of a cell layer. Read a low Papp A→B as poor permeation. In general, Papp B→A refers to how fast a substance crosses the layer from the basolateral side. Take `CC[C@@]1(O)C(=O)OCc2c1cc1n(c2=O)Cc2cc3c(CN(C)C)c(O)ccc3nc2-1` [Topotecan]: the apparent permeability from apical to basolateral (Papp A→B) at 2 h, 2 µM was found to be 1.54 ± 0.12 ×10⁻⁶ cm/s in [1] and 2.88 ± 0.55 ×10⁻⁶ cm/s in [2]. In addition, the Papp B→A at 2 h, 2 µM was 3.47 ± 0.26 ×10⁻⁶ cm/s in data set [1] and 6.18 ± 1.63 ×10⁻⁶ cm/s in data set [2]. The results for the efflux ratio at 2 h, 2 µM (in data set [1] (read-out: ER); in the data set with BCRP) were 2.25 and around 1, respectively. Besides, in [3], the ER amounted to 2.15.

For `NNC(=O)NN1C(=O)c2cc(S(=O)(=O)[O-])cc3c(N)c(S(=O)(=O)[O-])cc(c23)C1=O.[K+].[K+]` [Lucifer yellow CH dipotassium salt], the “permeability value (barrier integrity)” value in the data set with NCI-H441 cell model (NCI-H441, about 7 days air–liquid interface) was below 2 ×10⁻⁶ cm/s; in [3] (NCI-H441/dTHP co-culture 24 h) it was below 2 ×10⁻⁶ cm/s; with Calu-3 cell model, below 2 ×10⁻⁶ cm/s.

In data set [3], `CC(C)NCC(O)COc1ccc(CC(N)=O)cc1` (stereo not drawn) [Atenolol] had an ER of 0.88.

In the case of `COCCc1ccc(OCC(O)CNC(C)C)cc1` (stereo not drawn) [Metoprolol], the Papp A→B at 2 h, 2 µM in data set [1] amounted to 25.6 ± 5.45 ×10⁻⁶ cm/s; in data set [2] it was 27.9 ± 7.99 ×10⁻⁶ cm/s; in data set [4] it was 28.5 ± 2.17 ×10⁻⁶ cm/s; in [5], 29.8 ± 2.28 ×10⁻⁶ cm/s; at P-gp (MDR1), 20.4 ± 1.24 ×10⁻⁶ cm/s. Further, the Papp B→A at 2 h, 2 µM amounted to 23.4 ± 2.96 ×10⁻⁶ cm/s in [1]; 24.36 ± 0.22 ×10⁻⁶ cm/s in data set [2]; 25.6 ± 3.71 ×10⁻⁶ cm/s in [4]; 21.9 ± 3.73 ×10⁻⁶ cm/s in [5]; 23.1 ± 1.94 ×10⁻⁶ cm/s at P-gp (MDR1). Also, the ER was 0.91 with NCI-H441 cell model (NCI-H441, 2 μM) and 0.90 in [3]. Also, the results for the efflux ratio at 2 h, 2 µM (in data set [4]; in data set [5]; on P-gp (MDR1)) were 0.9, 29.8 ± 2.28 and 1.13, respectively.

Turning to `CC(=O)N[C@H]1[C@H]([C@H](O)[C@H](O)CO)OC(C(=O)O)=C[C@@H]1N=C(N)N` [zanamivir], the absolute bioavailability entry in data set [6] is given as “approximately 2%”.

For the molecule `C[C@H]1O[C@@H](O[C@H]2[C@@H](O)C[C@H](O[C@H]3[C@@H](O)C[C@H](O[C@H]4CC[C@@]5(C)[C@H](CC[C@@H]6[C@@H]5C[C@@H](O)[C@]5(C)[C@@H](C7=CC(=O)OC7)CC[C@]65O)C4)O[C@@H]3C)O[C@@H]2C)C[C@H](O)[C@@H]1O` [Digoxin], the Papp A→B at 2 h, 2 µM in [4] stood at 1.64 ± 0.27 ×10⁻⁶ cm/s; in [5], 0.66 ± 0.02 ×10⁻⁶ cm/s. Also, the values for the Papp B→A at 2 h, 2 µM (in data set [4]; in data set [5]; on P-gp (MDR1)) were 2.22 ± 0.36 ×10⁻⁶ cm/s, 25.1 ± 7.18 ×10⁻⁶ cm/s and 9.76 ± 0.73 ×10⁻⁶ cm/s, respectively. In addition, the figures for the efflux ratio at 2 h, 2 µM (in data set [4]; in the data set on P-gp; at P-gp (MDR1)) were 1.35, around 1 and 13.1, respectively. The “Papp A-B” value on human MDR1 (P-gp) was 0.74 ± 0.15 ×10−6 cm/s.
